In patent publication US9441018B2, “Gene from tidal flat metagenome and a novel protein displaying both phospholipase and lipase activities” (KOREA RESEARCH INSTITUTE OF BIOSCIENCE AND BIOTECHNOLOGY, priority 2011, dated 2016):
Where “and” joins values, the source holds several entries; their conditions need not be identical. Equal entries are not always repeated. Where two headings read alike, the source gives them in different places.

Assays:
[1] = test system: phospholipase/lipase MPIaG; type: biochemical, tidal flat metagenome
[2] = test system: phospholipase/lipase MPIaG
Procedure: Particularly, enzyme activity was measured by the following two methods. […] The second method was spectrophotometric assay as standard method of the present invention. […] The increasing rate of para-nitrophenol hydrolyzed from the substrate was continuously measured at OD405. Unless informed otherwise, p-nitrophenyl caprate (C10) was used as a substrate. 1 unit (U) of enzyme was defined as the enzyme amount capable of producing 1 μmol of para-nitrophenol via hydrolysis.

| Structure (SMILES) | Enzyme activity relative value (%) ([1]; additive 1 mM) | Enzyme activity relative value (%) ([1]; additive 5 mM) | Enzyme activity relative value (%) ([1]; additive 10 mM) | Enzyme activity relative value (%) ([2]; organic solvent 20%) | Enzyme activity relative value (%) ([2]; organic solvent 30%) | Enzyme activity relative value (%) ([2]; organic solvent 50%) | Enzyme activity relative value (%) ([2]; organic solvent 60%) | also measured |
| --- | --- | --- | --- | --- | --- | --- | --- | --- |
| [Cl-].[Cl-].[Zn+2] [ZnCl2] | 107 | 9 | 5 |  |  |  |  |  |
| CO [Methanol] |  |  |  | 100 | 101 | 93 | 98 |  |
| [Cl][Cu][Cl] [CuCl2] | 135 | 32 | 11 |  |  |  |  |  |
| OCCS [2-mercaptoethanol] | 105 | 108 | 80 |  |  |  |  |  |
| [Ca+2].[Cl-].[Cl-] [CaCl2] | 466 | 1015 | 994 |  |  |  |  | increase of enzyme activities [1]: approximately 10 times |
| CCO [Ethanol] |  |  |  | 100 | 95 | 94 | 98 |  |
| CC(C)O [2-propanol] |  |  |  | 101 | 97 | 96 | 99 |  |
| CC#N [Acetonitrile] |  |  |  | 100 | 99 | 98 | 99 |  |
| O=C(O)CN(CCN(CC(=O)O)CC(=O)O)CC(=O)O [EDTA, ethylenediaminetetraacetic acid] |  |  |  |  |  |  |  | effect on enzyme activities (in words) [1]: strongly inhibited |
| O=S(=O)(F)Cc1ccccc1 [PMSF, phenyl methyl sulfonyl fluoride] | 94 | 107 | 105 |  |  |  |  |  |
| [Cl-].[Cl-].[Co+2] [CoCl2] |  |  |  |  |  |  |  | Enzyme activity relative value (%) [1]: 120% and 177% and 116% |
| C[S+](C)[O-] [DMSO, dimethyl sulfoxide] |  |  |  | 98 | 97 | 98 | 81 |  |
| [Cl][Ni][Cl] [NiCl2] | 62 | 23 | 7 |  |  |  |  |  |
| O=S(=O)([O-])[O-].[Fe+2] [FeSO4] | 137 | 142 | 151 |  |  |  |  |  |
| [Cl-].[Cl-].[Mg+2] [MgCl2] | 105 | 198 | 142 |  |  |  |  |  |
| O[C@H](CS)[C@H](O)CS (racemic) [DTT, dithiothreitol] | 93 | 107 | 105 |  |  |  |  |  |
| CN(C)C=O [DMF, dimethylformamide] |  |  |  | 99 | 100 | 93 | 98 |  |
| CC(C)=O [Acetone] |  |  |  | 96 | 100 | 96 | 99 |  |
